From patent publication US12291607B2, “Polymer material and method for producing same” (Osaka University, priority 2019, dated 2025)

Experiment: Solubility of host (Ac-CDAA) and guest (ADAA) monomers in third polymerizable monomers
Assay type: physicochemical
Description: The phrase “the host group-containing polymerizable monomer and the guest group-containing polymerizable monomer are dissolved in the third polymerizable monomer” means that the mixture of the host group-containing polymerizable monomer and the guest group-containing polymerizable monomer in a total amount of 1 part by weight or more is dissolved per 100 parts by weight of the third polymerizable monomer at a temperature of 20° C. It is preferable that the mixture of the host group-containing polymerizable monomer and the guest group-containing polymerizable monomer in a total amount of 1 part by weight or more, and particularly preferably 10 parts by weight or more, is dissolved per 100 parts by weight of the third polymerizable monomer at a temperature of 20° C.
(§1) The solubility of Ac-CDAA (host group-containing polymerizable monomer) in the following various monomers (third polymerizable monomers) was as follows: • less than 1 g for 100 g of 2EHA (20° C.) • less than 1 g for 100 g of OctA (octyl acrylate) (20° C.) • 10 g or more for 100 g of 2MEA (20° C.) • 10 g or more for 100 g of 4HBA (20° C.) • 10 g or more for 100 g of DMAA (20° C.)
as §1, with “Further, the” for “The”, “ADAA (guest” for “Ac-CDAA (host”, “OctA” for “OctA (octyl acrylate)”

## C=CC(=O)NC12CC3CC(CC(C3)C1)C2 [ADAA, N-(1-adamantyl) acrylamide]
For 100 g of 2EHA (20° C.)
  solubility in 2EHA: less than 1 g
For 100 g of 2MEA (20° C.)
  solubility in 2MEA: ≥ 10 g
For 100 g of 4HBA (20° C.)
  solubility in 4HBA: ≥ 10 g
For 100 g of DMAA (20° C.)
  solubility in DMAA: ≥ 10 g
For 100 g of OctA (octyl acrylate) (20° C.)
  solubility in OctA: less than 1 g
